Reference: ChEMBL document CHEMBL1201862, “PubChem BioAssay data set” (2004)
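Briefly, cells in 96-well plates were exposed to five compound concentrations for 48 h, and endpoints were estimated by linear interpolation. Abbreviation: GI50, concentration required for 50% inhibition of growth.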 Activity calls are given as the source filed them. No stated cut-off is given here; in the data, active = GI50 up to about 1.1 µM and inactive = higher.

Assays:
Experiment in all cases: NCI-60 cell line screen, 48 h
HOP-92 = test system: HOP-92
HCT-15 = test system: HCT-15
K562 = test system: K562
Hs-578T = test system: Hs-578T
786-0 = test system: 786-0
T47D = test system: T47D
TK-10 = test system: TK-10
RXF 393 = test system: RXF 393
SW-620 = test system: SW-620
BT-549 = test system: BT-549
HCC 2998 = test system: HCC 2998
HOP-62 = test system: HOP-62
EKVX = test system: EKVX
ACHN = test system: ACHN
SR = test system: SR
SF-268 = test system: SF-268
SK-OV-3 = test system: SK-OV-3
NCI-H460 = test system: NCI-H460
PC-3 = test system: PC-3

With `CCC1C(c2cc(OC)c(OC)c(OC)c2)c2cc3c(cc2OC1N1CCCC1)OCO3` (configuration not stated) the GI50 (HOP-92) was 4.18 µM (inactive), the GI50 (HCT-15) was 0.984 µM and the GI50 (K562) was 0.752 µM (active). For the same compound, the GI50 (Hs-578T) was 1.36 µM (inactive), the GI50 (786-0) was 3.07 µM (inactive) and the GI50 (T47D) was 3.78 µM (inactive). For the same compound, the GI50 (TK-10) was 7.91 µM (inactive), the GI50 (RXF 393) was 1.45 µM (inactive) and the GI50 (SW-620) was 1.21 µM (inactive). For the same compound, the GI50 (BT-549) was 4.06 µM (inactive), the GI50 (HCC 2998) was 2.74 µM (inactive) and the GI50 (HOP-62) was 2.82 µM (inactive). For the same compound, the GI50 (EKVX) was 7.28 µM (inactive), the GI50 (ACHN) was 4.03 µM (inactive) and the GI50 (SR) was 1.17 µM (inactive). For the same compound, the GI50 (SF-268) was 4.58 µM (inactive), the GI50 (SK-OV-3) was 3.42 µM (inactive) and the GI50 (NCI-H460) was 2.84 µM (inactive). The GI50 (PC-3) was 1.48 µM (inactive).
With `COc1cc(/C=C2/C[C@H]3[C@@H]4CC=C5C[C@@H](OC(C)=O)CC[C@]5(C)[C@H]4CC[C@]3(C)NC2=O)cc(OC)c1OC` the GI50 (HOP-92) was 24.6 µM (inactive), the GI50 (HCT-15) was 32.7 µM and the GI50 (K562) was 45.3 µM (inactive). For the same compound, the GI50 (Hs-578T) was 24.2 µM (inactive), the GI50 (786-0) was 17.9 µM (inactive) and the GI50 (T47D) was 22 µM (inactive). The GI50 (TK-10) was 26.5 µM (inactive), the GI50 (RXF 393) was 17.3 µM (inactive) and the GI50 (SW-620) was 54 µM (inactive). The GI50 (BT-549) was 22.5 µM (inactive), the GI50 (HCC 2998) was 43.4 µM (inactive) and the GI50 (HOP-62) was 26.6 µM (inactive). For the same compound, the GI50 (EKVX) was 26.6 µM (inactive), the GI50 (ACHN) was 19.1 µM (inactive) and the GI50 (SR) was 47.6 µM (inactive). For the same compound, the GI50 (SF-268) was 24 µM (inactive), the GI50 (SK-OV-3) was 25.3 µM (inactive) and the GI50 (NCI-H460) was 32.7 µM (inactive). For the same compound, the GI50 (PC-3) was 19 µM (inactive).
In the case of `O=[N+]([O-])c1ccc(/C(=N/c2ccccc2)SS/C(=N\c2ccccc2)c2ccc([N+](=O)[O-])o2)o1`, the GI50 (HOP-92) is reported as 2.93 µM (inactive), the GI50 (HCT-15) is reported as 0.552 µM and the GI50 (K562) is reported as 1.34 µM (inactive). The GI50 (Hs-578T) was 2.32 µM (inactive), the GI50 (786-0) was 1.4 µM (inactive) and the GI50 (T47D) was 2.2 µM (inactive). For the same compound, the GI50 (TK-10) was 3.13 µM (inactive), the GI50 (RXF 393) was 1.75 µM (inactive) and the GI50 (SW-620) was 0.425 µM (active). For the same compound, the GI50 (BT-549) was 1.75 µM (inactive), the GI50 (HCC 2998) was 1.59 µM (inactive) and the GI50 (HOP-62) was 2.17 µM (inactive). The GI50 (EKVX) was 1.77 µM (inactive), the GI50 (ACHN) was 1.91 µM (inactive) and the GI50 (SR) was 0.425 µM (active). The GI50 (SF-268) was 1.8 µM (inactive), the GI50 (SK-OV-3) was 3.86 µM (inactive) and the GI50 (NCI-H460) was 1.33 µM (inactive). The GI50 (PC-3) was 1.7 µM (inactive).
`Cc1cc2nc(O)c(C(C)C(=O)c3ccc(Cl)cc3)nc2cc1C` (configuration not stated) was tested, and the GI50 (HOP-92) was 59.3 µM (inactive), the GI50 (HCT-15) was 44.7 µM and the GI50 (K562) was 40.6 µM (inactive). The GI50 (Hs-578T) was 54.6 µM (inactive), the GI50 (786-0) was 27.6 µM (inactive) and the GI50 (T47D) was 32.3 µM (inactive). The GI50 (TK-10) was 27 µM (inactive), the GI50 (RXF 393) was 41.3 µM (inactive) and the GI50 (SW-620) was 28.8 µM (inactive). For the same compound, the GI50 (BT-549) was 54.5 µM (inactive), the GI50 (HCC 2998) was 13.5 µM (inactive) and the GI50 (HOP-62) was 49.8 µM (inactive). For the same compound, the GI50 (EKVX) was 14.2 µM (inactive), the GI50 (ACHN) was 54.1 µM (inactive) and the GI50 (SR) was 22.2 µM (inactive). The GI50 (SF-268) was 47.5 µM (inactive), the GI50 (SK-OV-3) was > 100 µM (inactive) and the GI50 (NCI-H460) was 29.9 µM (inactive). The GI50 (PC-3) was 31 µM (inactive).
`Cc1ccc(S(=O)(=O)N/N=C/C(Br)=C(/Br)C(=O)O)cc1` was tested, and the GI50 (HOP-92) was 11.3 µM (inactive), the GI50 (HCT-15) was 2.19 µM and the GI50 (Hs-578T) was 10.7 µM (inactive). For the same compound, the GI50 (786-0) was 3.42 µM (inactive), the GI50 (T47D) was 4.57 µM (inactive) and the GI50 (TK-10) was 7.69 µM (inactive). The GI50 (RXF 393) was 2.21 µM (inactive), the GI50 (SW-620) was 2.2 µM (inactive) and the GI50 (BT-549) was 6.55 µM (inactive). For the same compound, the GI50 (HCC 2998) was 4.29 µM (inactive), the GI50 (HOP-62) was 16.2 µM (inactive) and the GI50 (EKVX) was 10.2 µM (inactive). For the same compound, the GI50 (ACHN) was 2.71 µM (inactive), the GI50 (SR) was 0.321 µM (active) and the GI50 (SF-268) was 11.4 µM (inactive). The GI50 (SK-OV-3) was 16.4 µM (inactive), the GI50 (NCI-H460) was 17.5 µM (inactive) and the GI50 (PC-3) was 8.89 µM (inactive).
`CC(=O)O[C@H]1C(=O)[C@@]2(C)[C@H]([C@H](OC(=O)C3CCCCC3)[C@]3(O)C[C@H](OC(=O)[C@H](O)[C@@H](NC(=O)C4CCCCC4)C4CCCCC4)C(C)=C1C3(C)C)[C@]1(OC(C)=O)CO[C@@H]1C[C@@H]2O` was tested, and the GI50 (HOP-92) was 0.0427 µM (active), the GI50 (HCT-15) was 0.143 µM and the GI50 (K562) was 0.0128 µM (active). For the same compound, the GI50 (Hs-578T) was 0.00962 µM (active), the GI50 (786-0) was 0.0171 µM (active) and the GI50 (T47D) was 0.0219 µM (active). The GI50 (TK-10) was 0.0451 µM (active), the GI50 (RXF 393) was 0.0407 µM (active) and the GI50 (SW-620) was 0.01 µM (active). For the same compound, the GI50 (BT-549) was 0.0556 µM (active), the GI50 (HCC 2998) was 0.0442 µM (active) and the GI50 (HOP-62) was 0.0222 µM (active). For the same compound, the GI50 (EKVX) was 5.61 µM (inactive), the GI50 (ACHN) was 0.168 µM (active) and the GI50 (SR) was 0.0082 µM (active). For the same compound, the GI50 (SF-268) was 0.408 µM (active), the GI50 (SK-OV-3) was 0.029 µM (active) and the GI50 (NCI-H460) was 0.00723 µM (active). The GI50 (PC-3) was 0.016 µM (active).
`COc1ccc(-c2cc(-c3ccc(Nc4ccnc5cc(Cl)ccc45)cc3)[nH]c(=O)c2C#N)c2ccccc12` was tested, and the GI50 (HOP-92) was 3.84 µM (inactive), the GI50 (HCT-15) was 8.45 µM and the GI50 (K562) was 2.37 µM (inactive). For the same compound, the GI50 (Hs-578T) was 2.62 µM (inactive), the GI50 (786-0) was 3.4 µM (inactive) and the GI50 (T47D) was 1.88 µM (inactive). For the same compound, the GI50 (TK-10) was 8.63 µM (inactive), the GI50 (RXF 393) was 5.05 µM (inactive) and the GI50 (SW-620) was 3.51 µM (inactive). The GI50 (BT-549) was 16.4 µM (inactive), the GI50 (HCC 2998) was 5.51 µM (inactive) and the GI50 (HOP-62) was 14.5 µM (inactive). The GI50 (EKVX) was > 77.1 µM (inactive), the GI50 (ACHN) was 27.5 µM (inactive) and the GI50 (SR) was 0.413 µM (active). The GI50 (SF-268) was 12.7 µM (inactive), the GI50 (SK-OV-3) was 20.9 µM (inactive) and the GI50 (NCI-H460) was 11.1 µM (inactive). The GI50 (PC-3) was 19.5 µM (inactive).
